Test results published in article PMC4264749, “Phlebotomy Treatment for Elimination of Perfluoroalkyl Acids in a Highly Exposed Family: A Retrospective Case-Series” (PLoS ONE, 2014).
Like-named read-outs stand apart in the source and are kept apart here.

Key:
[1] = Apparent elimination half-life (HLapp) and phlebotomy efficiency coefficient in treated family members; format: in vivo, human; conditions: family members with regular phlebotomy, except parent
Source text: To evaluate the effect of phlebotomy, versus the expected rate of intrinsic elimination, we graphically and statistically compared the observed decreasing trends in each family member (fitted to a simple exponential decay model) with reference population elimination kinetics. Specifically, for the reference population of occupationally exposed retirees, we considered: i) the 95% confidence interval of the geometric mean elimination rate for each PFAA, and ii) the fastest individual rate of elimination rate among the reference population. For comparative purposes, the concentration of each PFAA in serum on the first day of the intervention was taken as time zero, and the models were forced through this starting point.
One metric that was calculated to compare the efficiency of the phlebotomy for removal of different PFAAs in each family member was termed the phlebotomy efficiency coefficient (EC). This was based on the subtractive difference between HLapp (yrs) in each treated family member and the geometric mean HLin (yrs) of the reference population according to Equation 1 . [drawing 1] (1)

[2] = set-up: method as in PMID 17805419; conditions: cited from earlier work
[3] = Serum PFAA concentrations in family members during intermittent phlebotomy (HPLC-MS/MS); format: in vivo, human; conditions: for Serum concentration before treatment: before phlebotomy; for Serum concentration after treatment: after phlebotomy
Source text: After receiving informed consent, intermittent phlebotomy was undertaken at an overall rate (Table 2) that was equal to or less than the maximum rate of what is done for routine blood donations at the Canadian Blood Services: ∼500 ccs of whole blood every 56 days. Frequency and timing of blood removal was not consistent between family members because of their personal availability, success at each time of venesection, and compliance of each participant. […] Mineral supplementation was discussed and was taken by each participant.
All serum samples were submitted to ALS Laboratories (Edmonton, AB) for quantitative analysis of PFAAs (see Supporting Information, S1 Table). Samples were extracted by solid phase extraction and concentrations of PFHxS, PFOS, and PFOA were determined using high performance liquid chromatography/tandem mass spectrometry. Formic acid (0.1 M) along with a mixture of isotopically labeled PFAAs (Wellington Laboratories, Guelph, Ontario) were added to 1.0 mL of serum. The mixture was vortexed, sonicated, and subjected to solid phase extraction. The extract was concentrated to 100 uL and an instrument performance internal standard was added along with 200 uL of 90% 20 mM aqueous acetic acid/10% methanol. Procedural blanks were run with each set of samples, and method limits of quantification (LOQ) were 0.5 ng/mL for each analyte. For the few PFAA levels that fell below this LOQ (shown as hollow circles in Figs. 1–3), LOQ/√2 (i.e. 0.35 ng/mL) was substituted for purposes of data analysis. PFHxS, PFOS, and PFOA levels in all participating family members were >LOQ throughout the intervention except for 3 PFOS measurements out of 16 total measurements in the 3rd child and one PFOA measurement out of 9 total measurements in the […]. Written informed consent was given by participants (or parents in the case of children) for their clinical records to be used in this study.

[4] = set-up: method as in earlier work; conditions: 2009–2011; cited from earlier work
[5] = set-up: method as in PMID 23980546; conditions: urinary excretion, China, cited from earlier work

O=S(=O)(O)C(F)(F)C(F)(F)C(F)(F)C(F)(F)C(F)(F)C(F)(F)C(F)(F)C(F)(F)F [PFOS, perfluoroctane sulfonate]
HLapp compared with geometric mean HLin of reference population [1]: significantly shorter
HLin of fastest eliminator in the reference population ([2]; reference population of occupationally exposed retirees (26 individuals)): 2.4 yrs
95% confidence interval of the geometric mean HLin ([2]; reference population of occupationally exposed retirees): 4.0–5.8 yrs
intrinsic human elimination half-life (HLin) ([2]; serum, highly contaminated retirees >55 yrs, previously occupationally exposed): 5.4 years
HLin, 95% confidence interval ([2]; serum, retirees >55 yrs, previously occupationally exposed): 3.9–6.9 yrs
Serum concentration before treatment ([3]; 1st Child): 19.3 ng/mL
Serum concentration ([3]; 1st Child, sampling date 2009.10.12): 14.3 ng/mL
Serum concentration ([3]; 1st Child, sampling date 2009.12.24): 16.1 ng/mL
Serum concentration ([3]; 1st Child, sampling date 2009.6.9): 19.3 ng/mL
Serum concentration ([3]; 1st Child, sampling date 2009.9.9): 14.8 ng/mL
Serum concentration ([3]; 1st Child, sampling date 2010.10.14): 0.73 ng/mL
Serum concentration ([3]; 1st Child, sampling date 2010.1.17): 11.3 ng/mL
Serum concentration ([3]; 1st Child, sampling date 2010.2.11): 6.84 ng/mL
Serum concentration ([3]; 1st Child, sampling date 2010.4.14): 17.9 ng/mL
Serum concentration ([3]; 1st Child, sampling date 2011.12.5): 0.93 ng/mL
Serum concentration ([3]; 1st Child, sampling date 2011.5.17, LOD=0.5ng/mL): <LOD
Serum concentration ([3]; 1st Child, sampling date 2011.8.12, LOD=0.5ng/mL): <LOD
Serum concentration ([3]; 1st Child, sampling date 2012.12.28, LOD=0.5ng/mL): <LOD
Serum concentration ([3]; 1st Child, sampling date 2012.4.24): 2.12 ng/mL
Serum concentration ([3]; 1st Child, sampling date 2012.8.21): 1.44 ng/mL
Serum concentration ([3]; 1st Child, sampling date 2013.3.30): 0.61 ng/mL
Serum concentration ([3]; 1st Child, sampling date 2013.7.30): 1.59 ng/mL
Serum concentration before treatment ([3]; 2nd Child): 59.7 ng/mL
Serum concentration ([3]; 2nd Child, sampling date 2009.10.24): 44.7 ng/mL
Serum concentration ([3]; 2nd Child, sampling date 2009.6.6): 59.7 ng/mL
Serum concentration ([3]; 2nd Child, sampling date 2009.7.2): 51.9 ng/mL
Serum concentration ([3]; 2nd Child, sampling date 2009.7.30): 51.9 ng/mL
Serum concentration ([3]; 2nd Child, sampling date 2009.8.24): 67.8 ng/mL
Serum concentration ([3]; 2nd Child, sampling date 2009.9.27): 41.4 ng/mL
Serum concentration ([3]; 2nd Child, sampling date 2010.1.3): 36.6 ng/mL
Serum concentration ([3]; 2nd Child, sampling date 2010.2.15): 47.7 ng/mL
Serum concentration ([3]; 2nd Child, sampling date 2011.10.2): 1.8 ng/mL
Serum concentration ([3]; 2nd Child, sampling date 2011.12.24): 13.9 ng/mL
Serum concentration ([3]; 2nd Child, sampling date 2011.4.27): 7.0 ng/mL
Serum concentration ([3]; 2nd Child, sampling date 2011.8.14): 4.6 ng/mL
Serum concentration ([3]; 2nd Child, sampling date 2012.12.24): 5.5 ng/mL
Serum concentration ([3]; 2nd Child, sampling date 2012.4.6): 12.2 ng/mL
Serum concentration ([3]; 2nd Child, sampling date 2013.5.11.): 9.2 ng/mL
Serum concentration ([3]; 2nd Child, sampling date 2013.7.15): 9.0 ng/mL
Serum concentration before treatment ([3]; 3rd Child): 87.3 ng/mL
Serum concentration ([3]; 3rd Child, sampling date 2009.10.11): 107.0 ng/mL
Serum concentration ([3]; 3rd Child, sampling date 2009.12.16): 48.9 ng/mL
Serum concentration ([3]; 3rd Child, sampling date 2009.6.1): 87.3 ng/mL
Serum concentration ([3]; 3rd Child, sampling date 2009.7.4): 102.9 ng/mL
Serum concentration ([3]; 3rd Child, sampling date 2009.8.7): 76.5 ng/mL
Serum concentration ([3]; 3rd Child, sampling date 2009.9.7): 113.0 ng/mL
Serum concentration ([3]; 3rd Child, sampling date 2010.1.24): 58.8 ng/mL
Serum concentration ([3]; 3rd Child, sampling date 2010.3.12): 66.3 ng/mL
Serum concentration ([3]; 3rd Child, sampling date 2010.5.23): 52.8 ng/mL
Serum concentration ([3]; 3rd Child, sampling date 2011.1.6): 18.6 ng/mL
Serum concentration ([3]; 3rd Child, sampling date 2011.11.26): 9.2 ng/mL
Serum concentration ([3]; 3rd Child, sampling date 2011.2.24): 11.9 ng/mL
Serum concentration ([3]; 3rd Child, sampling date 2011.4.30): 12.1 ng/mL
Serum concentration ([3]; 3rd Child, sampling date 2011.6.13): 11.5 ng/mL
Serum concentration ([3]; 3rd Child, sampling date 2011.9.27): 4.8 ng/mL
Serum concentration ([3]; 3rd Child, sampling date 2012.10.16): 17.1 ng/mL
Serum concentration ([3]; 3rd Child, sampling date 2012.1.8): 20.8 ng/mL
Serum concentration ([3]; 3rd Child, sampling date 2012.12.9): 10.5 ng/mL
Serum concentration ([3]; 3rd Child, sampling date 2012.3.4): 25.4 ng/mL
Serum concentration ([3]; 3rd Child, sampling date 2012.4.28): 19.8 ng/mL
Serum concentration ([3]; 3rd Child, sampling date 2013.10.27): 12.2 ng/mL
Serum concentration ([3]; 3rd Child, sampling date 2013.2.5): 8.8 ng/mL
Serum concentration ([3]; 3rd Child, sampling date 2013.3.30): 8.0 ng/mL
Serum concentration ([3]; 3rd Child, sampling date 2013.5.5): 12.8 ng/mL
Serum concentration ([3]; 3rd Child, sampling date 2013.7.25): 13.4 ng/mL
Serum concentration ([3]; 3rd Child, sampling date 2013.9.8): 12.0 ng/mL
starting serum concentration relative to 95th percentile among Canadians ([3]; 3 youngest children): 3–5 fold
Serum concentration after treatment ([3]; 4th Child): 5.0 ng/mL
Serum concentration before treatment ([3]; 4th Child): 62.4 ng/mL
Serum concentration ([3]; 4th Child, sampling date 2010.1.24): 26.8 ng/mL
Serum concentration after treatment ([3]; Average of 6 family members): 6.7 ng/mL
Serum concentration before treatment ([3]; Average of 6 family members): 43.4 ng/mL
Serum concentration before treatment ([3]; Parent one): 15.1 ng/mL
Serum concentration ([3]; Parent one, sampling date 2009.10.11): 8.8 ng/mL
Serum concentration ([3]; Parent one, sampling date 2009.10.12): 9.2 ng/mL
Serum concentration ([3]; Parent one, sampling date 2009.11.12): 11.0 ng/mL
Serum concentration ([3]; Parent one, sampling date 2009.12.14): 8.6 ng/mL
Serum concentration ([3]; Parent one, sampling date 2009.2.2): 15.1 ng/mL
Serum concentration ([3]; Parent one, sampling date 2009.5.18): 13.2 ng/mL
Serum concentration ([3]; Parent one, sampling date 2009.6.1): 11.8 ng/mL
Serum concentration ([3]; Parent one, sampling date 2009.7.4): 9.8 ng/mL
Serum concentration ([3]; Parent one, sampling date 2009.9.1): 11.3 ng/mL
Serum concentration ([3]; Parent one, sampling date 2010.10.10): 6.1 ng/mL
Serum concentration ([3]; Parent one, sampling date 2010.1.17): 8.6 ng/mL
Serum concentration ([3]; Parent one, sampling date 2010.3.13): 6.8 ng/mL
Serum concentration ([3]; Parent one, sampling date 2011.1.6): 2.3 ng/mL
Serum concentration ([3]; Parent one, sampling date 2011.11.26): 1.4 ng/mL
Serum concentration ([3]; Parent one, sampling date 2011.2.24): 2.1 ng/mL
Serum concentration ([3]; Parent one, sampling date 2011.4.30): 1.5 ng/mL
Serum concentration ([3]; Parent one, sampling date 2011.6.22): 1.6 ng/mL
Serum concentration ([3]; Parent one, sampling date 2011.8.4): 1.3 ng/mL
Serum concentration ([3]; Parent one, sampling date 2011.9.27): 0.5 ng/mL
Serum concentration ([3]; Parent one, sampling date 2012..12.28): 0.66 ng/mL
Serum concentration ([3]; Parent one, sampling date 2012.1.14): 3.8 ng/mL
Serum concentration ([3]; Parent one, sampling date 2012.11.1): 1.7 ng/mL
Serum concentration ([3]; Parent one, sampling date 2012.3.4): 3.7 ng/mL
Serum concentration ([3]; Parent one, sampling date 2012.4.29): 2.7 ng/mL
Serum concentration ([3]; Parent one, sampling date 2012.7.8): 3.1 ng/mL
Serum concentration ([3]; Parent one, sampling date 2012.8.21): 3.1 ng/mL
Serum concentration ([3]; Parent one, sampling date 2013.10.27): 1.4 ng/mL
Serum concentration ([3]; Parent one, sampling date 2013.2.18): 1.3 ng/mL
Serum concentration ([3]; Parent one, sampling date 2013.3.30): 1.5 ng/mL
Serum concentration ([3]; Parent one, sampling date 2013.5.11): 2.5 ng/mL
Serum concentration ([3]; Parent one, sampling date 2013.7.15): 2.3 ng/mL
Serum concentration ([3]; Parent one, sampling date 2013.9.8): 1.4 ng/mL
Serum concentration before treatment ([3]; Parent two): 16.3 ng/mL
Serum concentration ([3]; Parent two, sampling date 2009.6.1): 16.3 ng/mL
Serum concentration ([3]; Parent two, sampling date 2009.7.7): 10.9 ng/mL
Serum concentration ([3]; Parent two, sampling date 2009.8.24): 10.4 ng/mL
Serum concentration ([3]; Parent two, sampling date 2010.1.3): 5.7 ng/mL
Serum concentration ([3]; Parent two, sampling date 2010.4.11, LOD=0.5ng/mL): 4.4 ng/mL
Serum concentration ([3]; Parent two, sampling date 2012.3.13): 4.1 ng/mL
Serum concentration ([3]; Parent two, sampling date 2013.1.1): 2.5 ng/mL
Serum concentration ([3]; Parent two, sampling date 2013.10.6): 11.0 ng/mL
Serum concentration ([3]; Parent two, sampling date 2013.6.22): 3.4 ng/mL
95th percentile of serum concentration among Canadians [4]: 18 ng/mL
HLapp ([5]; males and post-menopausal females): 27 years
HLapp ([5]; reproductive-aged females): 6.2 years
